The values that follow come from ChEMBL document CHEMBL4706669, “Majonoside-R2 extracted from Vietnamese ginseng protects H9C2 cells against hypoxia/reoxygenation injury via modulating mitochondrial function and biogenesis” (2021).

The source made the active and inactive calls. No cut-off for these calls is given here.

For assay [1], the system named is H9c2. Nature of the assay: Cardioprotective activity against HR-induced injury in rat H9c2 cells assessed as increase in cell viability at 10 uM by CCK-8 assay relative to control. Type of assay: functional.
The test system of assay [2] is H9c2. Nature of the assay: Protection against HR-induced mitochondrial dysfunction in rat H9c2 cells assessed as mitochondrial membrane potential by measuring TMRE intensity by fluorescence microplate reader (reference value: 98.59 +/- 0.96 %). Format: functional, cell-based. The following applies: dose 9.0 µM.
Assay [3] deals with H9c2. The assay is described as follows: Protection against HR-induced mitochondrial dysfunction in rat H9c2 cells assessed as increase in cardiolipin content by fluorescence microplate reader. Format: functional, cell-based.
The subject of assay [4] is H9c2. Nature of the assay: Protection against HR-induced mitochondrial dysfunction in rat H9c2 cells assessed as decrease in ROS production by fluorescence microplate reader. Type of assay: functional, cell-based.
Assay [5] deals with H9c2. The assay is described as follows: Cardioprotective activity against HR-induced injury in rat H9c2 cells assessed as increase in cell viability at 0.1 to 90 uM by CCK-8 assay. Format: functional, cell-based. The following applies: dose 0.1-90 µM. (Formazan colour is commonly taken as a measure of viable cells.)
The test system of assay [6] is H9c2. The assay is described as follows: Cardioprotective activity against HR-induced injury in rat H9c2 cells assessed as increase in cell viability at 9 uM by CCK-8 assay relative to control. Type of assay: functional.
Assay [7] relates to H9c2. The assay is described as follows: Induction of mitochondrial biogenesis in rat H9c2 cells with HR-induced injury assessed as increase in NAO intensity by fluorescence microscopic analysis. Format: functional, cell-based.
For assay [8], the system named is H9c2. Nature of the assay: Increase in mitochondrial mass in rat H9c2 cells with HR-induced injury assessed as increase in NAO intensity by fluorescence microscopic analysis. Format: functional, cell-based.
The nature of assay [9]: Induction of mitochondrial biogenesis in rat H9c2 cells with HR-induced injury assessed as upregulation of PGC1beta mRNA expression relative to GADPH (reference value: 0.981 +/- 0.007). Type of assay: functional.
The test system of assay [10] is H9c2. Nature of the assay: Induction of mitochondrial biogenesis in rat H9c2 cells with HR-induced injury assessed as effect on PGC1alpha mRNA expression. Type of assay: functional, cell-based.
For assay [11], the system named is H9c2. Nature of the assay: Induction of mitochondrial biogenesis in rat H9c2 cells with HR-induced injury assessed as increase in NRF-1 mRNA expression. Type of assay: functional, cell-based.
The test system of assay [12] is H9c2. Nature of the assay: Induction of mitochondrial biogenesis in rat H9c2 cells with HR-induced injury assessed as […] in NRF-2 mRNA expression. Type of assay: functional, cell-based.
A short description of assay [13]: Induction of mitochondrial biogenesis in rat H9c2 cells with HR-induced injury assessed as upregulation of PPAR expression by immunoblotting (reference value: 0.065 +/- 0.019). Type of assay: functional.
The nature of assay [14]: Induction of mitochondrial biogenesis in rat H9c2 cells with HR-induced injury assessed as upregulation of ATP5I expression (reference value: 0.998 +/- 0.001). Format: functional.
The test system of assay [15] is H9c2. Nature of the assay: Induction of mitochondrial biogenesis in rat H9c2 cells with HR-induced injury assessed as upregulation of TFAM expression. Type of assay: functional, cell-based.

On to `CS(=O)(=O)O.CS(=O)(=O)O.O=S1(=O)CCN(Cc2cc(NCC3CCOCC3)c3[nH]c(-c4ccccc4)cc3c2)CC1`, for which, in [1], the Activity was 84.37%. Besides, the outcome in [2], in [3] and in [4] was Active.
`CC(C)(O)[C@@H]1CC[C@@](C)([C@H]2CC[C@]3(C)[C@@H]2[C@H](O)C[C@@H]2[C@@]4(C)CC[C@H](O)C(C)(C)[C@@H]4[C@@H](O[C@@H]4O[C@H](CO)[C@@H](O)[C@H](O)[C@H]4O[C@@H]4OC[C@@H](O)[C@H](O)[C@H]4O)C[C@]23C)O1` [MAJONOSIDE R2]: the outcome in [5], in [2], in assay [3], in assay [4], in [7] and in assay [8] was Active. The result in assay [11], in [12] and in [15] was Active. Further, in assay [6], the Activity came to 78.09%. Moreover, the “fold change (FC)” value in [9] came to 1.113; in [13], 0.867; in assay [14], 1.135. Moreover, in [10], the result was inactive.
